According to paper PMC9876986, “Direct cell extraction of membrane proteins for structure–function analysis” (Scientific Reports, 2023):

Target: T1, mouse PANX1 (pannexin1) (Mus musculus, UniProt Q9JIP4)
T1 construct: wildtype mouse PANX1, untagged, in His-tagged Salipro nanoparticles
Assay: SPR on immobilized His-Salipro-mPANX1, empty particles as reference
Assay type: binding

T1 sequence (Q9JIP4 whole entry): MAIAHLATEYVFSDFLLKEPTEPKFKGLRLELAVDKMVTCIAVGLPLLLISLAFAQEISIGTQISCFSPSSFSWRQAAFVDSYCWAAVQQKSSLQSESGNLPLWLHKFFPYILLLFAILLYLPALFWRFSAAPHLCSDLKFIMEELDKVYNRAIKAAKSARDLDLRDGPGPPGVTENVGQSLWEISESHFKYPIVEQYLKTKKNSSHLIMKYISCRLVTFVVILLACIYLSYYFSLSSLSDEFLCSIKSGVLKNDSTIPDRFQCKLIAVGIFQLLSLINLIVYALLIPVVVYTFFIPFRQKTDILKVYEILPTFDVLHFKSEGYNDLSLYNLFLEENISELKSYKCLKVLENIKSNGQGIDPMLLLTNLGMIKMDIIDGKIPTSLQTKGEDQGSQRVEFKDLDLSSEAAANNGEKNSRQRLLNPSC

CC(=O)S[C@@H]1CC2=CC(=O)CC[C@]2(C)[C@H]2CC[C@@]3(C)[C@@H](CC[C@@]34CCC(=O)O4)[C@H]12 [spironolactone]
Kd: 160 µM
